Measurements taken from patent publication US5750504A, “Antimicrobial proteins” (Zeneca Agrochemicals, priority 1996, dated 1998).

How the values were obtained:
Type in all cases: cell-based
fungi = experiment: Morphological effect on fungal hyphae (fungi in general)
Fusarium culmorum = experiment: Antifungal activity assay (microspectrophotometry); details: for IC50: host Cereals, inoculum Sp, period of incubation in AFP-solution 48
Method: (§1) Antifungal activity was measured by microspectrophotometry as previously described (Broekaert, 1990, FEMS Microbiol Lett, 69:55-60). Routinely, tests were performed with 20 μl of a (filter-sterilized) test solution and 80 μl of a suspension of fungal spores (2×10^4 spores/ml) in half strength potato dextrose broth (1/2 PDB). […] Control microcultures contained 20 μl of sterile distilled water and 80 μl of the fungal spore suspension.
(§2) Unless otherwise stated the test organism was Fusarium culmorum (strain IMI 180420) and incubation was done at 25° C. for 48 hours. Percent growth inhibition is defined as 100 times the ratio of the corrected absorbance of the control microculture minus the corrected absorbance of the test microculture over the corrected absorbance at 595 nm of the control microculture. The corrected absorbance values equal the absorbance at 595 nm of the culture measured after 48 hours minus the absorbance at 595 nm measured after 30 min.
(§3) The antifungal potency of the purified proteins was assessed on different plant pathogenic fungi, using the assay described in Example 1. Growth of fungi, collection and harvest of fungal spores and preparation of mycelial fragments were done as previously described (Broekaert et al, 1990, FEMS Microbiol Lett, 69:55-60). Serial dilutions of the antifungal proteins were applied to the fungi, either using growth medium SMF- (the synthetic growth medium of Example 1), medium SMF+ (medium SMF- supplemented with 1 mM CaCl2 and 50 mM KCl), growth medium 1/2 PDB- (half strength potato dextrose broth as in Example 1) or growth medium 1/2 PDB+ (medium 1/2 PDB- supplemented with 1 mM CaCl2 and 50 mM Kcl). The percent growth inhibition was measured by microspectrophotometry. The concentration required for 50% growth inhibition after 48 h of incubation (IC50 value) was calculated from the dose-reponse curves.
(§4) The abbreviations used are: IC50 =concentration required for 50% growth inhibition determined as described in Example 1; ND=not determined; Sp=spores; PrSp=spores pregerminated in the medium for 24 hours; MF=mycelial fragments preincubated for 48 hours in the medium prior to addition of the proteins; BHR=broad host range; SF=saprophytic fungus; SMF-=synthetic growth medium as described in Example 1; SMF+=SMF- supplemented with 1 mM CaCl2 and 50 mM KCl; 1/2PDB-=half strength potato dextrose broth as described in Example 1; 1/2PDB+=1/2PDB- supplemented with 1 mM CaCl2 and 50 mM KCl.

Botrytis cinerea = experiment: Antifungal activity assay (microspectrophotometry); details: strain K1147, host BHR, inoculum Sp, period of incubation in AFP-solution 48
Method: as §1, §2, §3, §4

Ascochyta pisi = experiment: Antifungal activity assay (microspectrophotometry); details: strain MUCL30164, host Pisum, inoculum Sp, period of incubation in AFP-solution 48
Method: as §1, §2, §3, §4

Trichoderma viride = experiment: Antifungal activity assay (microspectrophotometry); details: strain K1127, SF, inoculum Sp, period of incubation in AFP-solution 48
Method: as §1, §2, §3, §4

Penicillum digitatum = experiment: Antifungal activity assay (microspectrophotometry); details: host Citrus fruit, inoculum Sp, period of incubation in AFP-solution 48
Method: as §1, §2, §3, §4

Verticillium albo-atrum = experiment: Antifungal activity assay (microspectrophotometry); details: strain K0937, host Lycoperisicum, inoculum Sp, period of incubation in AFP-solution 48
Method: as §1, §2, §3, §4

Septoria tritici = experiment: Antifungal activity assay (microspectrophotometry); details: strain K1097, host Triticum, inoculum Sp, period of incubation in AFP-solution 48
Method: as §1, §2, §3, §4

Mycoshpaerella fijiensis = experiment: Antifungal activity assay (microspectrophotometry); details: strain FUL549; host Musa; medium 1/2PDB+; inoculum MF; period of incubation in AFP-solution 96
Method: as §1, §2, §3, §4

[1] = tested on: Cladosporium sphaerospermum; experiment: Antifungal activity assay (microspectrophotometry); details: strain K0791, SF, inoculum Sp, period of incubation in AFP-solution 48
Method: as §1, §2, §3, §4

[2] = tested on: Bacillus subtilis JHCC 553331; experiment: Antibacterial activity assay (microspectrophotometry)
Method: Antibacterial activity was measured microspectrophotometrically as follows. A bacterial suspension was prepared by inoculating soft nutrient agarose (tryptone, 10 g/l; Seaplaque agarose (FMC), 5 g/l). Aliquots (80 μl) of the bacterial suspension (10^5 colony forming units per ml) were added to filter-sterilized samples (20 μl) in flat-bottom 96-well microplates. The absorbance at 595 nm of the culture was measured with the aid of a microplate reader after 30 minutes and 24 hours of incubation at 28° C. Percent growth inhibition was calculated as described above for the antifungal activity assay.
The antibacterial activities of Ah-AMP1 and Hs-AFP1 were measured on four gram positive bacteria (Bacillus subtilis JHCC 553331; Micrococcus luteus ATCC 93411; Staphylococcus aureus ATCC 25923; Streptococcus feacolis ATCC 29212) and two gram negative bacteria (Eschericia coli HB101 and Proteus vulgaris JHCC 558711).

Glomerella cingulata = experiment: Antifungal activity assay (microspectrophotometry); details: strain FAJ76, host Musa, inoculum Sp, period of incubation in AFP-solution 64
Method: as §1, §2, §3, §4

Curvularia affinis = experiment: Antifungal activity assay (microspectrophotometry); details: strain FAJ97, host Musa, inoculum Sp, period of incubation in AFP-solution 40
Method: as §1, §2, §3, §4

Acremonium hyalinum = experiment: Antifungal activity assay (microspectrophotometry); details: strain FAJ98, host Musa, inoculum Sp, period of incubation in AFP-solution 64
Method: as §1, §2, §3, §4

Gloeosporium musarum = experiment: Antifungal activity assay (microspectrophotometry); details: for IC50: inoculum Sp, period of incubation in AFP-solution 40
Method: as §1, §2, §3, §4

Alternaria brassicola = experiment: Antifungal activity assay (microspectrophotometry); details: strain MUCL20297, host Brassica, inoculum Sp, period of incubation in AFP-solution 48
Method: as §1, §2, §3, §4

| Substance | hyperbranching of fungi (fungi) | interference with fungal growth processes (hyphal length) (fungi) | IC50 (Fusarium culmorum; strain IMI180420, medium SMF+) | IC50 (Fusarium culmorum; strain IMI180420, medium SMF-) | IC50 (Fusarium culmorum; strain K0311, medium 1/2PDB+) | IC50 (Fusarium culmorum; strain K0311, medium 1/2PDB-) | IC50 (Botrytis cinerea; medium 1/2PDB+) | IC50 (Botrytis cinerea; medium 1/2PDB-) | IC50 (Ascochyta pisi; medium SMF+) | IC50 (Ascochyta pisi; medium SMF-) | IC50 (Trichoderma viride; medium 1/2PDB+) | IC50 (Trichoderma viride; medium 1/2PDB-) | IC50 (Penicillum digitatum; strain K0679, medium 1/2PDB-) | IC50 (Penicillum digitatum; strain K0879, medium 1/2PDB+) | IC50 (Verticillium albo-atrum; medium 1/2PDB+) | IC50 (Verticillium albo-atrum; medium 1/2PDB-) | IC50 (Septoria tritici; medium 1/2PDB+) | IC50 (Septoria tritici; medium 1/2PDB-) | IC50 (Mycoshpaerella fijiensis) | IC50 ([1]; medium 1/2PDB+) | other results |
| --- | --- | --- | --- | --- | --- | --- | --- | --- | --- | --- | --- | --- | --- | --- | --- | --- | --- | --- | --- | --- | --- |
| Hs-AFP1: Heuchera sanquinea antifungal protein 1; 5 kDa polypeptide purified from seeds, 54 amino acids, SEQ ID NO 1 (DGVKLCDVPSGTWSGHCGSSSKCSQQCKDREHFAYGGACHYQFPSVKCFCKRQC) | cause hyperbranching | reduction in hyphal length | 1 µg/mL | 0.5 µg/mL | 3 µg/mL | 1 µg/mL | 25 µg/mL | 6 µg/mL | > 5 µg/mL | 1.5 µg/mL | > 100 µg/mL | 15 µg/mL | 1 µg/mL | 3 µg/mL | 30 µg/mL | 12 µg/mL | 3 µg/mL | 0.5 µg/mL | 12.5 µg/mL | 3 µg/mL | antifungal activity on Fusarium culmorum (in words) (Fusarium culmorum; in 1/2PDB+): highly active; IC50 ([1]; medium 1/2PDB-): 1 µg/mL; inhibition of bacterial growth ([2]; tested at 200 μg/ml): did not inhibit the growth |
| Ah-AMP1: Aesculus hippocastanum antimicrobial protein 1; 5 kDa polypeptide purified from seeds, 50 amino acids, SEQ ID NO 2 (LCNERPSQTWSGNCGNTAHCDKQCQDWEKASHGACHKRENHWKCFCYFNC) | do not | reduction in hyphal length | 25 µg/mL | 1.5 µg/mL | > 100 µg/mL | 12 µg/mL | > 100 µg/mL | 25 µg/mL | 15 µg/mL | 0.8 µg/mL | > 100 µg/mL | > 100 µg/mL | 6 µg/mL | 25 µg/mL | > 100 µg/mL | 6 µg/mL | 1.5 µg/mL | 0.5 µg/mL | 0.75 µg/mL | 12 µg/mL | IC50 (Glomerella cingulata; medium SMF+): 12.5 µg/mL; IC50 (Glomerella cingulata; medium SMF-): < 0.75 µg/mL; IC50 (Curvularia affinis; medium SMF+): 25 µg/mL; IC50 (Curvularia affinis; medium SMF-): 0.75 µg/mL; IC50 (Acremonium hyalinum; medium SMF+): 12.5 µg/mL; IC50 (Acremonium hyalinum; medium SMF-): < 0.75 µg/mL; reduction of activity in medium SMF- versus SMF+ (Gloeosporium musarum; on Gloeosporium musarum): more than ten-fold; IC50 (Gloeosporium musarum; strain FAJ86, host Muaa, medium SMF+): 12.5 µg/mL; IC50 (Gloeosporium musarum; strain FAJB6, host Musa, medium SMF-): < 0.75 µg/mL; IC50 (Alternaria brassicola; medium SMF+): 12 µg/mL; IC50 (Alternaria brassicola; medium SMF-): 1.5 µg/mL; IC50 ([1]; medium 1/2PDB-): 0.5 µg/mL; inhibition of bacterial growth ([2]; at 100 μg/ml): inhibited growth |
